# pKi: −log10 of the molar value. *1 amine or outer side, *2 acyl side, *3 side chain or, on linkers, in order; H or OH if unused. Where a SMILES comes first, the peptide text is derived from it. Side-chain parts run from the residue outwards. The star is where a group is joined. C18 diacid = O=C(O)CCCCCCCCCCCCCCCCC(=O)*; γGlu = O=C(O)[C@H](CCC(=O)[*:2])N[*:1]; Isovaleryl = CC(C)CC(=O)*; AEEA = NCCOCCOCC(=O)O
# Molecular target: T1, Human Neuropeptide Y2 Receptor (Homo sapiens, UniProt P49146)
# T1 construct: purchased CHEMICON HTS066M
# T1 sequence (P49146 1-381): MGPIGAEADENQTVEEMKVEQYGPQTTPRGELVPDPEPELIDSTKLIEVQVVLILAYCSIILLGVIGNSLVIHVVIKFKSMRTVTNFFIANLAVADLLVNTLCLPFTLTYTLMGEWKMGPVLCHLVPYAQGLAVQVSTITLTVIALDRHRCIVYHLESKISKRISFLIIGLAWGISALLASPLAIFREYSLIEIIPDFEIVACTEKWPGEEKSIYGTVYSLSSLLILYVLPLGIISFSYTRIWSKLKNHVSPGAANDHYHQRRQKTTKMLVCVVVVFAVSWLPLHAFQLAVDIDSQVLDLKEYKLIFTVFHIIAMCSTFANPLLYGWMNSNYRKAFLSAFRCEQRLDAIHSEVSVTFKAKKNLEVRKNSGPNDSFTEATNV
# Assay: Radioligand binding competition assay (RLB)
# Conditions: Table 3; human 125I-PYY (1-36) 0.02 nM, Y2 receptor membranes; read-out: Ki
# Outline: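 Membranes (0.5 μg/well) and test peptides, serially diluted from 1 mM DMSO stocks, were incubated 2 hours at room temperature in HEPES buffer pH 7.4 with Mg, Ca and ovalbumin.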
row,pKi,Structure (SMILES)
1,7.40,"CC(C)CC(=O)N[C@@H](C)C(=O)N1CCC[C@H]1C(=O)N[C@@H](CCC(=O)O)C(=O)N[C@@H](CCCCNC(=O)COCCOCCNC(=O)COCCOCCNC(=O)CC[C@H](NC(=O)CCCCCCCCCCCCCCCCC(=O)O)C(=O)O)C(=O)N[C@@H](C)C(=O)N[C@@H](CCC(=O)O)C(=O)N[C@@H](CCC(=O)O)C(=O)N[C@@H](CCC(=O)O)C(=O)N[C@@H](C)C(=O)N[C@@H](CO)C(=O)N1CCC[C@H]1C(=O)N[C@@H](CCC(=O)O)C(=O)N[C@@H](CCC(=O)O)C(=O)N[C@@H](CC(C)C)C(=O)N[C@@H](CCC(N)=O)C(=O)N[C@@H](CCCNC(=N)N)C(=O)N[C@@H](Cc1ccc(O)cc1)C(=O)N[C@@H](Cc1ccc(O)cc1)C(=O)N[C@H](C(=O)N[C@@H](CO)C(=O)N[C@@H](CC(C)C)C(=O)N[C@@H](CCCNC(=N)N)C(=O)N[C@@H](Cc1c[nH]cn1)C(=O)N[C@@H](Cc1ccc(O)cc1)C(=O)N[C@@H](Cc1ccc(O)cc1)C(=O)N[C@@H](CC(N)=O)C(=O)N[C@@H](Cc1c[nH]c2ccccc12)C(=O)N[C@@H](CC(C)C)C(=O)N[C@H](C(=O)N[C@@H](CCCNC(=N)N)C(=O)N[C@@H](CCC(N)=O)C(=O)N[C@@H](CCCNC(=N)N)C(=O)N[C@@H](Cc1ccc(O)cc1)C(N)=O)[C@@H](C)O)C(C)C [Compound 51, N{alpha-4}-(3-methylbutanoyl)-N{epsilon-7}-[2-(2-{2-[2-(2-{2-[(4S)-4-carboxy-4-(17-carboxyheptadecanamido)butanamido]ethoxy}ethoxy)acetamido]ethoxy}ethoxy)acetamido]-[4A,7K,8A,9E,11E,18Q,22V,28Y,30W,31L]hPYY (4-36)] (Isovaleryl-APEK([AEEA-AEEA-γGlu-C18 diacid])AEEEASPEELQRYYVSLRHYYNWLTRQRY-NH2)"
2,8.07,"CC(C)CC(=O)N[C@@H](C)C(=O)N1CCC[C@H]1C(=O)N[C@@H](CCC(=O)O)C(=O)N[C@@H](CCCCNC(=O)COCCOCCNC(=O)COCCOCCNC(=O)CC[C@H](NC(=O)CCCCCCCCCCCCCCCCC(=O)O)C(=O)O)C(=O)N[C@@H](C)C(=O)N[C@@H](CCC(=O)O)C(=O)N[C@@H](CCC(=O)O)C(=O)N[C@@H](CC(=O)O)C(=O)N[C@@H](C)C(=O)N[C@@H](CO)C(=O)N[C@@H](CCC(=O)O)C(=O)N[C@@H](CCC(=O)O)C(=O)N[C@@H](CCC(=O)O)C(=O)N[C@@H](CC(C)C)C(=O)N[C@@H](CCC(N)=O)C(=O)N[C@@H](CCCNC(=N)N)C(=O)N[C@@H](Cc1ccc(O)cc1)C(=O)N[C@@H](Cc1ccc(O)cc1)C(=O)N[C@H](C(=O)N[C@@H](CO)C(=O)N[C@@H](CC(C)C)C(=O)N[C@@H](CCCNC(=N)N)C(=O)N[C@@H](Cc1c[nH]cn1)C(=O)N[C@@H](Cc1ccc(O)cc1)C(=O)N[C@@H](Cc1ccc(O)cc1)C(=O)N[C@@H](CC(N)=O)C(=O)N[C@@H](Cc1c[nH]c2ccccc12)C(=O)N[C@@H](CC(C)C)C(=O)N[C@H](C(=O)N[C@@H](CCCNC(=N)N)C(=O)N[C@@H](CCC(N)=O)C(=O)N[C@@H](CCCNC(=N)N)C(=O)N[C@@H](Cc1ccc(O)cc1)C(N)=O)[C@@H](C)O)C(C)C [Compound 52, N{alpha-4}-(3-methylbutanoyl)-N{epsilon-7}-[2-(2-{2-[2-(2-{2-[(4S)-4-carboxy-4-(17-carboxyheptadecanamido)butanamido]ethoxy}ethoxy)acetamido]ethoxy}ethoxy)acetamido]-[4A,7K,8A,9E,14E,18Q,22V,28Y,30W,31L]hPYY (4-36)]"

# The remaining lines, values behind:
row,Structure (SMILES),pKi
1,"CC(C)CC(=O)N[C@@H](C)C(=O)N1CCC[C@H]1C(=O)N[C@@H](CCC(=O)O)C(=O)N[C@@H](CCCCNC(=O)COCCOCCNC(=O)COCCOCCNC(=O)CC[C@H](NC(=O)CCCCCCCCCCCCCCCCC(=O)O)C(=O)O)C(=O)N1CCC[C@H]1C(=O)N[C@@H](CCC(=O)O)C(=O)N[C@@H](CCC(=O)O)C(=O)N[C@@H](CCC(=O)O)C(=O)N[C@@H](C)C(=O)N[C@@H](CO)C(=O)N1CCC[C@H]1C(=O)N[C@@H](CCC(=O)O)C(=O)N[C@@H](CO)C(=O)N[C@@H](CC(C)C)C(=O)N[C@@H](CCC(N)=O)C(=O)N[C@@H](CCCNC(=N)N)C(=O)N[C@@H](Cc1ccc(O)cc1)C(=O)N[C@@H](Cc1ccc(O)cc1)C(=O)N[C@H](C(=O)N[C@@H](CO)C(=O)N[C@@H](CC(C)C)C(=O)N[C@@H](CCCNC(=N)N)C(=O)N[C@@H](Cc1c[nH]cn1)C(=O)N[C@@H](Cc1ccc(O)cc1)C(=O)N[C@@H](Cc1ccc(O)cc1)C(=O)N[C@@H](CC(N)=O)C(=O)N[C@@H](Cc1c[nH]c2ccccc12)C(=O)N[C@@H](CC(C)C)C(=O)N[C@H](C(=O)N[C@@H](CCCNC(=N)N)C(=O)N[C@@H](CCC(N)=O)C(=O)N[C@@H](CCCNC(=N)N)C(=O)N[C@@H](Cc1ccc(O)cc1)C(N)=O)[C@@H](C)O)C(C)C [Compound 45, N{alpha-4}-(3-methylbutanoyl)-N{epsilon-7}-[2-(2-{2-[2-(2-{2-[(4S)-4-carboxy-4-(17-carboxyheptadecanamido)butanamido]ethoxy}ethoxy)acetamido]ethoxy}ethoxy)acetamido]-[4A,7K,9E,11E,16S,18Q,22V,28Y,30W,31L]hPYY (4-36)] (Isovaleryl-APEK([AEEA-AEEA-γGlu-C18 diacid])PEEEASPESLQRYYVSLRHYYNWLTRQRY-NH2)",8.40
2,"CC(C)CC(=O)N[C@@H](C)C(=O)N1CCC[C@H]1C(=O)N[C@@H](CCC(=O)O)C(=O)N[C@@H](CCCCNC(=O)COCCOCCNC(=O)COCCOCCNC(=O)CC[C@H](NC(=O)CCCCCCCCCCCCCCCCC(=O)O)C(=O)O)C(=O)N1CCC[C@H]1C(=O)N1CCC[C@H]1C(=O)N[C@@H](C)C(=O)N[C@@H](CC(=O)O)C(=O)N[C@@H](C)C(=O)N[C@@H](CO)C(=O)N1CCC[C@H]1C(=O)N[C@@H](CCC(=O)O)C(=O)N[C@@H](CCC(=O)O)C(=O)N[C@@H](CC(C)C)C(=O)N[C@@H](CCC(N)=O)C(=O)N[C@@H](CCCNC(=N)N)C(=O)N[C@@H](Cc1ccc(O)cc1)C(=O)N[C@@H](Cc1ccc(O)cc1)C(=O)N[C@H](C(=O)N[C@@H](CO)C(=O)N[C@@H](CC(C)C)C(=O)N[C@@H](CCCNC(=N)N)C(=O)N[C@@H](Cc1c[nH]cn1)C(=O)N[C@@H](Cc1ccc(O)cc1)C(=O)N[C@@H](Cc1ccc(O)cc1)C(=O)N[C@@H](CC(N)=O)C(=O)N[C@@H](Cc1c[nH]c2ccccc12)C(=O)N[C@@H](CC(C)C)C(=O)N[C@H](C(=O)N[C@@H](CCCNC(=N)N)C(=O)N[C@@H](CCC(N)=O)C(=O)N[C@@H](CCCNC(=N)N)C(=O)N[C@@H](Cc1ccc(O)cc1)C(N)=O)[C@@H](C)O)C(C)C [Compound 47, N{alpha-4}-(3-methylbutanoyl)-N{epsilon-7}-[2-(2-{2-[2-(2-{2-[(4S)-4-carboxy-4-(17-carboxyheptadecanamido)butanamido]ethoxy}ethoxy)acetamido]ethoxy}ethoxy)acetamido]-[4A,7K,9P,10A,18Q,22V,28Y,30W,31L]hPYY (4-36)]",9.38
3,"CC(C)CC(=O)N[C@@H](C)C(=O)N1CCC[C@H]1C(=O)N[C@@H](CCC(=O)O)C(=O)N[C@@H](CCCCNC(=O)COCCOCCNC(=O)COCCOCCNC(=O)CC[C@H](NC(=O)CCCCCCCCCCCCCCCCC(=O)O)C(=O)O)C(=O)N1CCC[C@H]1C(=O)N[C@@H](CCC(=O)O)C(=O)N[C@@H](CCC(=O)O)C(=O)N[C@@H](CC(=O)O)C(=O)N[C@H](C(=O)N[C@@H](CCC(=O)O)C(=O)N1CCC[C@H]1C(=O)N[C@@H](CCC(=O)O)C(=O)N[C@@H](CCC(=O)O)C(=O)N[C@@H](CC(C)C)C(=O)N[C@@H](CCC(N)=O)C(=O)N[C@@H](CCCNC(=N)N)C(=O)N[C@@H](Cc1ccc(O)cc1)C(=O)N[C@@H](Cc1ccc(O)cc1)C(=O)N[C@H](C(=O)N[C@@H](CO)C(=O)N[C@@H](CC(C)C)C(=O)N[C@@H](CCCNC(=N)N)C(=O)N[C@@H](Cc1c[nH]cn1)C(=O)N[C@@H](Cc1ccc(O)cc1)C(=O)N[C@@H](Cc1ccc(O)cc1)C(=O)N[C@@H](CC(N)=O)C(=O)N[C@@H](Cc1c[nH]c2ccccc12)C(=O)N[C@@H](CC(C)C)C(=O)N[C@H](C(=O)N[C@@H](CCCNC(=N)N)C(=O)N[C@@H](CCC(N)=O)C(=O)N[C@@H](CCCNC(=N)N)C(=O)N[C@@H](Cc1ccc(O)cc1)C(N)=O)[C@@H](C)O)C(C)C)[C@@H](C)O [Compound 48, N{alpha-4}-(3-methylbutanoyl)-N{epsilon-7}-[2-(2-{2-[2-(2-{2-[(4S)-4-carboxy-4-(17-carboxyheptadecanamido)butanamido]ethoxy}ethoxy)acetamido]ethoxy}ethoxy)acetamido]-[4A,7K,9E,12T,13E,18Q,22V,28Y,30W,31L]hPYY (4-36)]",7.41
